One block for each molecule: values may come before it. Calls of active or inactive are those of the source.
Tests used:
[1] = molecular target: T1, Caspase-6 (Homo sapiens, UniProt P55212); test: human caspase-6 inhibitors, dose response, biochemical, VEID-R110 fluorescence, cherry-pick (AID 720632)
T1 sequence (P55212 whole entry): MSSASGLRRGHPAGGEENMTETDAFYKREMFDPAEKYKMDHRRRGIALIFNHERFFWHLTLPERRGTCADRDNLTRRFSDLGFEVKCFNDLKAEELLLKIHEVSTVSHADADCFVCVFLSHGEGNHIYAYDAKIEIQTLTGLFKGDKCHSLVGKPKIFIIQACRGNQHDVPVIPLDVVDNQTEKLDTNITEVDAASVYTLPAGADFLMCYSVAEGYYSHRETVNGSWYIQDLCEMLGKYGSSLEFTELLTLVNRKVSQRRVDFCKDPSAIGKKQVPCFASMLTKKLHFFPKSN

[2] = molecular target: Paired box protein Pax-8 (Homo sapiens, UniProt Q06710); test: inhibitors of PAX8-driven TPO luciferase reporter, dose response, RMG-I cells, cherry-pick (AID 687027); type: functional, cell-based;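 also: luciferase reporter driven by Pax8 target thyroperoxidase promoter measured by SteadyGlo luminescence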
[3] = non-specific cell cytotoxicity, dose response, cytotoxicity control for PAX8 inhibitor project, plate reader, dry powder samples (AID 743021); type: functional, cell-based
[4] = molecular target: T2, Ubiquitin-conjugating enzyme E2 N (Homo sapiens, UniProt P61088); type: functional;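 also: Dose-response confirmation in a TR-FRET assay detecting UBC13-driven polyubiquitin chain formation, inhibition measured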
T2 sequence (P61088 whole entry): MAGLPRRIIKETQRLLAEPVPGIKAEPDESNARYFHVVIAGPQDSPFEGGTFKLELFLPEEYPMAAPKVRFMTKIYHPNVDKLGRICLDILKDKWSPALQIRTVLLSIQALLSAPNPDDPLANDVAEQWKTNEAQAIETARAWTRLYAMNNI

[5] = A549 cell cytotoxicity, dose response, cytotoxicity control, plate reader, cherry-pick, antagonist series (AID 743412); type: functional, cell-based
[6] = molecular target: Albumin (Bos taurus, UniProt P02769); test: Counterscreen for inhibitors of T-cell receptor (TCR)-CD3 interaction: Fluorescence-based biochemical high throughput dose response assay to identify inhibitors of T-cell receptor (TCR)-CD3 interaction using a TAMRA-labeled BSA probe.; type: functional
[7] = cells; type: functional, cell-based
[8] = human group III sPLA2 inhibitors, dose response, biochemical, QFRET, IC50 (AID 743457);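 also: green fluorescence rise as the enzyme cleaves BODIPY PC-A2 in liposomes; potency for inhibition of the enzyme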
[9] = tested on: Streptococcus; test: Group A Streptococcus viability loss, dose response, counter-screen for streptokinase expression inhibitor project, luminescence, BacTiterGlo (AID 1915); type: functional, organism-based;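 also: potency for reduction of bacterial viability or growth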
[10] = cells; type: functional, cell-based; remark: listed apart in the source
[11] = tested on: Streptococcus sp. 'group A'; test: growth inhibition of control SK(-) GAS strain, dose response, counter-screen for streptokinase expression inhibitor project, luminescence, kanamycin, BacTiterGlo, confirmation (AID 1900); type: functional, organism-based
[12] = tested on: INS1; test: beta cell apoptosis inhibitors, cytokine rescue, dose response, luminescence, retest (AID 449756); type: functional, cell-based; settings: Rattus norvegicus;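 also: cell death triggered by IL-1 beta plus TNF-alpha plus IFN-gamma mixture; protective hits raise ATP signal compared with cytokine alone wells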
[13] = nonselective inhibitors of cellular cAMP signaling, dose response, counter-screen for MC4R biased antagonist project, cell-based, TR-FRET cAMP detection (AID 602305); type: functional;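 also: U2OS cells stimulated with forskolin near its EC80 as the cAMP inducer; potency is for inhibition of forskolin-stimulated cAMP signaling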
[14] = HepG2 cell cytotoxicity, dose response, cytotoxicity control for Shn3 inhibitor project, CellTiter-Glo, cherry-picked (AID 624134); type: functional, cell-based
[15] = Fluorescence-based cell-based high throughput dose response assay for inhibitors of the interaction of nucleotide-binding oligomerization domain containing 2 (NOD2) and the receptor-interacting serine-threonine kinase 2 (RIPK2).; type: functional; settings: Homo sapiens
[16] = control 3'UTR Renilla luciferase suppression, dose response, counter-screen for Shn3 inhibitor project, cell-based, Clone20-Shn3RL, cherry-picked (AID 624133); type: functional
[17] = molecular target: Melanocortin receptor 4 (Homo sapiens, UniProt P32245); test: MC4R antagonist potency on cAMP, dose response, cell-based, TR-FRET, biased antagonists (AID 602298); type: functional;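 also: antagonist potency against agonist-stimulated cAMP production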
[18] = Shn3 3'UTR reporter inhibitors, dose response, cell-based, Clone20 osteoblasts, firefly luciferase, cherry-picked (AID 624132); type: functional;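 also: firefly luciferase luminescence from reporter carrying the Shn3 3'UTR in osteoblasts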
[19] = molecular target: Beta Lactamase (Pseudomonas aeruginosa, UniProt Q932Y6); test: beta-lactamase reporter inhibitor potency, dose response, artefact control for NOD2-RIPK2 interaction inhibitor project, BLA reporter cells, FRET fluorescence (AID 651552); type: functional, cell-based
[20] = molecular target: T3, Corticotropin-releasing factor receptor 2/Corticotropin-releasing factor-binding protein (Homo sapiens, UniProt P24387+Q13324); test: activators of CRF receptor 2 with binding protein – uHTS hits, confirmation (AID 602473); type: functional; settings: read-out: EC50_Mean
T3 sequence (Q13324 whole entry): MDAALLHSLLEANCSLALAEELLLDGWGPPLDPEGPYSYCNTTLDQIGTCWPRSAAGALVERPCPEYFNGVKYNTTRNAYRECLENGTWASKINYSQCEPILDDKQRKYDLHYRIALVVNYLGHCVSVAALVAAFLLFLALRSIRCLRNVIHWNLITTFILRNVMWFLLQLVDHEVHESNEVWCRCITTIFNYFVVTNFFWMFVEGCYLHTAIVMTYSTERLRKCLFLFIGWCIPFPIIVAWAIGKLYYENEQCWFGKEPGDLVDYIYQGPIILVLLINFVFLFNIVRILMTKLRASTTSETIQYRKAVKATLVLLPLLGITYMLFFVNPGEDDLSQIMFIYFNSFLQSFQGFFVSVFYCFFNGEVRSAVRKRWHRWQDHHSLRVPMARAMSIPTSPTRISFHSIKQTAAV
T3 sequence (P24387 whole entry): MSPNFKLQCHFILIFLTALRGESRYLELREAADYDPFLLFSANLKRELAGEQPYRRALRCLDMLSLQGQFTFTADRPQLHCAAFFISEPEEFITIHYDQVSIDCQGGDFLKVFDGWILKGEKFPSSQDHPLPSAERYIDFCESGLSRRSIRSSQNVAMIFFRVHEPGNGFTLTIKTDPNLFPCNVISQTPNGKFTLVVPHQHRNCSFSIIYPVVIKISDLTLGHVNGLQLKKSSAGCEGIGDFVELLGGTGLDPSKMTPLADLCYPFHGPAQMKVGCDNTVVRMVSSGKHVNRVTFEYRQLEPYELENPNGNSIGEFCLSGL

[21] = molecular target: T3, Corticotropin-releasing factor receptor 2/Corticotropin-releasing factor-binding protein; test: Dose Response confirmation of uHTS hits for small molecule antagonists of the CRF-binding protein and CRF-R2 receptor complex.; type: functional; settings: read-out: IC50_Mean

Sequence of Paired box protein Pax-8 (Q06710 whole entry): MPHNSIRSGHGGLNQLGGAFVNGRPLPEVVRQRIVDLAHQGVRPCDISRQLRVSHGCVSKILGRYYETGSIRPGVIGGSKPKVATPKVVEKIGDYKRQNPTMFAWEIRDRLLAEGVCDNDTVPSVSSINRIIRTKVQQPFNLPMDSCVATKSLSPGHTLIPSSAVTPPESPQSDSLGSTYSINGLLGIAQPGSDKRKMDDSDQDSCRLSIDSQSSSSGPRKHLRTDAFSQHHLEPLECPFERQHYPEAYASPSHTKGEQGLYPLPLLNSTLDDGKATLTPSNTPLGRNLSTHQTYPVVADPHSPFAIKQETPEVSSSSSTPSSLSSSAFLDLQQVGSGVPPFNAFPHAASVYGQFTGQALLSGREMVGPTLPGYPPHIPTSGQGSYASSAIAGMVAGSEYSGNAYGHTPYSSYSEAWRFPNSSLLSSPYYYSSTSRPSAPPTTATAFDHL
Sequence of Melanocortin receptor 4 (P32245 whole entry): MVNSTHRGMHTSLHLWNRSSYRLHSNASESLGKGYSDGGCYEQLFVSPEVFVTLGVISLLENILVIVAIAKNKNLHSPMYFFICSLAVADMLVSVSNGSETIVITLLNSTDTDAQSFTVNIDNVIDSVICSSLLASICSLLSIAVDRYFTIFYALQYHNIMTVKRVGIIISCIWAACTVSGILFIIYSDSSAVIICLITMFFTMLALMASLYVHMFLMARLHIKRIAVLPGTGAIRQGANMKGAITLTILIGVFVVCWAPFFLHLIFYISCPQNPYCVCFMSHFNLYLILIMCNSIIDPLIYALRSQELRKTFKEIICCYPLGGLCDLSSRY
Sequence of Beta Lactamase (Q932Y6 whole entry): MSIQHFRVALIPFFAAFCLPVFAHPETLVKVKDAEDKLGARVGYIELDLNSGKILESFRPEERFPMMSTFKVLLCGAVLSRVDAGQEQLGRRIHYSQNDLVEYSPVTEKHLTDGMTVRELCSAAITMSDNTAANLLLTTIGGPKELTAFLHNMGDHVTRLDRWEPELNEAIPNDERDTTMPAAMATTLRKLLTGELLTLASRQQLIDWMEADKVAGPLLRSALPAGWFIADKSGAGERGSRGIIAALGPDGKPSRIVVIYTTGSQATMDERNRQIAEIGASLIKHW
Sequence of Albumin (P02769 whole entry): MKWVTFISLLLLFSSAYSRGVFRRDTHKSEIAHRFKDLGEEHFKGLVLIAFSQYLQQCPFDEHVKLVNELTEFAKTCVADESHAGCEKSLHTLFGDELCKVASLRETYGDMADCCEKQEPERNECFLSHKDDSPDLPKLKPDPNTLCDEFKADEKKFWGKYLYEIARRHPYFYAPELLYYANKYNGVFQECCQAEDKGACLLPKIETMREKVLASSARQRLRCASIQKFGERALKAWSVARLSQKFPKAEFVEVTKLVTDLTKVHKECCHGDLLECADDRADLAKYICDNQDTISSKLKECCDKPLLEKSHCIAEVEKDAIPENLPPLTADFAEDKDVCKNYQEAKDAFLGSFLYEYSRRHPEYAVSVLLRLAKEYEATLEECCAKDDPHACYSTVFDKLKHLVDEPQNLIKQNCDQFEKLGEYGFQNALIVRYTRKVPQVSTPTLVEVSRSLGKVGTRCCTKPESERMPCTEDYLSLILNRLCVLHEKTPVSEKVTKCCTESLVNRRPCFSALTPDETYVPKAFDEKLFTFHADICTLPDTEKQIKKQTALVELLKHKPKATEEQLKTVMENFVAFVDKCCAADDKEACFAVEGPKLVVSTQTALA

- AC50 [1]: 18.5 µM (active)
SMILES: COc1cc(C(=O)OCC(=O)N2CCCC2=O)cc(OC)c1C

SMILES: COc1cccc(/C=C2/Sc3ccc(C(=O)NCCN4CCCCCC4)cc3NC2=O)c1
- AC50 [2]: 10.1 µM (active)
- AC50 [3]: 36 µM (active)
- IC50 [4]: > 20 µM (inactive)

- AC50 [1]: 51.7 µM (active)
SMILES: CC(C)CN1C(=O)NC2(CCCc3ccccc32)C1=O (centres undefined)

SMILES: CC(=O)N1CCc2cc(S(=O)(=O)C(C)CC(=O)NCc3ccco3)ccc21 (centres undefined)
- AC50 [5]: > 52 µM (inactive)

SMILES: Cc1cc(Br)cc(/C=N/NC(=O)c2ccc3c(c2)OCO3)c1O
- IC50 [6]: > 94.1 µM (inactive)
- EC50 [7]: 75.7 µM (active)
- IC50 [8]: > 122 µM (inactive)
- EC50 [9]: 3.25 µM (active)
- EC50 [10]: 96.8 µM (active)
- EC50 [11]: 1.22 µM (active)
- AC50 [12]: 1.32 µM (active)

SMILES: CC(OC(=O)c1ccc(S(C)(=O)=O)c([N+](=O)[O-])c1)C(=O)NC1C2CC3CC(C2)CC1C3 (centres undefined)
- IC50 [13]: > 64.6 µM (inactive)
- AC50 [2]: 5.88 µM (active)
- AC50 [14]: 8.28 µM (active)
- IC50 [15]: 0.8 µM (active)
- AC50 [16]: 7.51 µM (active)
- IC50 [17]: > 64.6 µM (inactive)
- AC50 [18]: 1.4 µM (active)
- AC50 [3]: 22.6 µM (active)
- IC50 [19]: 49.8 µM (inactive)

- EC50 [20]: > 53 µM (inactive)
- IC50 [21]: > 47.1 µM (inactive)
SMILES: Nc1ccc(S(=O)(=O)Nc2ccc(Cl)nn2)cc1 [SULFACHLORPYRIDAZINE]

Source: ChEMBL document CHEMBL1201862, “PubChem BioAssay data set” (2004)
